Here are results for 1 compound from article PMC12169663, “Deciphering the Tumor Uptake of Heterobivalent (SST2/Albumin) [^64Cu]Cu-NODAGA-cLAB-TATEs” (Journal of Medicinal Chemistry, 2025).

*1 amine or outer side, *2 acyl side, *3 side chain or, on linkers, in order; H or OH if unused. Where a SMILES comes first, the peptide text is derived from it. Bridges are numbered along the chain shown (N, C = ends). [ ]: non-standard residue; d: D form. The star is where a group is joined. Ala(1-(4-CO-Ph)triazol-4-yl) = O=C([C@H](Cc1cn(-c2ccc(C(=O)[*:3])cc2)nn1)N[*:1])[*:2]; X1 = O=C(O)CN1CCN(CC(=O)O)CCN([C@H](CCC(=O)*)C(=O)O)CC1; X2 = Cc1ccc(CCCC(=O)NCCCC[C@H](N*)C(N)=O)cc1; AEEA = NCCOCCOCC(=O)O

The target of series [1] is human serum albumin (HSA) (Homo sapiens, UniProt P02768). As to the kind of experiment: Radiometric ultrafiltration assay for binding to HSA.
Procedure: The ultrafiltration assay used to quantify the binding of the ^64Cu-labeled peptides to HSA was performed as previously described for NODAGA-cLAB-TATEs. , Briefly, a constant activity amount of the radioligands (10–15 MBq) were mixed with different HSA concentrations (200 nM–1.4 mM). Aliquots were loaded into the ultrafiltration devices (4104 centrifugal filter units by Millipore; 30 000 Da nominal molecular weight limit, methylcellulose micropartition membranes) and centrifuged. After centrifugation, aliquots from the top and bottom fractions were measured in a γ-counter (PerkinElmer, Wizard^2 2480 automatic gamma counter). The retained fraction was calculated as a quotient of these measurements. The dissociation constant, K d, was calculated using the Morrison equation.
Series [2] is described as follows: Plasma stability assay, human plasma. Type of series: in vitro ADME. The note with it: 37 °C, up to 24 h, single experiment, read-out: t1/2 (plasma), human. An excerpt: Previously, we discovered that the ^64Cu-labeled NODAGA-cLAB-TATEs with a primary amide functionality within the albumin-binding moiety are subject to a metabolic transformation in mouse plasma. In fact, the primary amide is slowly hydrolyzed to the carboxylic acid, which turned out to be catalyzed by plasma carboxylesterases as proven by blocking this transformation in the presence of bis-para-nitrophenylphosphate. […] As this transformation entails also an increase in the binding affinity to albumin, there might be effects on the biodistribution in mice, in particular the blood circulation time. To investigate this, NODAGA-cLAB6-TATE was designed, with cLAB6 (N3Bz-D-Lys(MPB)-NH2) representing the D-configured pendant of cLAB4 (N3Bz-L-Lys(MPB)-NH2). […] However, the apparent half-lives for both compounds (≈13 and >24 h) are longer compared to the half-lives previously determined for [ ^ 64 Cu]-Cu-NODAGA-cLAB3-TATE and [ ^ 64 Cu]-Cu-NODAGA-cLAB4-TATE (≈6 and ≈3 h, respectively). […]
(§1) Plasma stability of the radioligands was done as previously described for NODAGA-cLAB-TATE and NODAGA-NES-TATEs. , Briefly, an aliquot of the radioligand was added to plasma and stability was assessed at different time points by withdrawing an aliquot, followed by protein precipitation and analysis by radio-HPLC.

Series [3] in a line: Plasma stability assay, mouse plasma. The series is classed as in vitro ADME.
Text: Previously, we discovered that the ^64Cu-labeled NODAGA-cLAB-TATEs with a primary amide functionality within the albumin-binding moiety are subject to a metabolic transformation in mouse plasma. In fact, the primary amide is slowly hydrolyzed to the carboxylic acid, which turned out to be catalyzed by plasma carboxylesterases as proven by blocking this transformation in the presence of bis-para-nitrophenylphosphate. […] As this transformation entails also an increase in the binding affinity to albumin, there might be effects on the biodistribution in mice, in particular the blood circulation time. To investigate this, NODAGA-cLAB6-TATE was designed, with cLAB6 (N3Bz-D-Lys(MPB)-NH2) representing the D-configured pendant of cLAB4 (N3Bz-L-Lys(MPB)-NH2). […] However, the apparent half-lives for both compounds (≈13 and >24 h) are longer compared to the half-lives previously determined for [ ^ 64 Cu]-Cu-NODAGA-cLAB3-TATE and [ ^ 64 Cu]-Cu-NODAGA-cLAB4-TATE (≈6 and ≈3 h, respectively). For better comparability, the stability of [ ^ 64 Cu]-Cu-NODAGA-cLAB4-TATE was again examined with the same mouse plasma batch used for [ ^ 64 Cu]-Cu-NODAGA-cLAB5-TATE and [ ^ 64 Cu]-Cu-NODAGA-cLAB4- scr TATE. […] Therefore, the discrepancy with our previously reported stability data in mouse plasma might result from differences in the activity of plasma carboxylesterases in the obtained mouse plasma. However, the rate of amide hydrolysis is indeed lower for [ ^ 64 Cu]-Cu-NODAGA-cLAB4- scr TATE, independent of the mouse plasma batch, which might indicate that the actual amino acid sequence in these peptides affects the recognition by the plasma carboxylesterases.
2 Stability of the ^64Cu-labeled TATE derivatives in mouse plasma. (A) Radio-HPLC chromatograms of [^64Cu]-Cu-NODAGA-cLAB5-TATE (red), [^64Cu]-Cu-NODAGA-cLAB6-TATE (green), and [^64Cu]-Cu-NODAGA-cLAB- scr TATE (blue) after ^64Cu-labeling and incubation in mouse plasma for 24 h show the transformation of [^64Cu]-Cu-NODAGA-cLAB5-TATE and [^64Cu]-Cu-NODAGA-cLAB4- scr TATE into a metabolite of higher retention time (see the Discussion for explanation). (B) Plot of residual intact radioligands upon incubation with mouse plasma including nonlinear regression (black line) according to one-phase decay for [^64Cu]-Cu-NODAGA-cLAB5-TATE (red circles). The dotted lines represent fractions of 0.5 and 0.9. Data shown are mean values (±SD) from 1 to 3 experiments (each experiment was performed in single execution). […]
as §1

Chain of human serum albumin (HSA) (P02768 25-609): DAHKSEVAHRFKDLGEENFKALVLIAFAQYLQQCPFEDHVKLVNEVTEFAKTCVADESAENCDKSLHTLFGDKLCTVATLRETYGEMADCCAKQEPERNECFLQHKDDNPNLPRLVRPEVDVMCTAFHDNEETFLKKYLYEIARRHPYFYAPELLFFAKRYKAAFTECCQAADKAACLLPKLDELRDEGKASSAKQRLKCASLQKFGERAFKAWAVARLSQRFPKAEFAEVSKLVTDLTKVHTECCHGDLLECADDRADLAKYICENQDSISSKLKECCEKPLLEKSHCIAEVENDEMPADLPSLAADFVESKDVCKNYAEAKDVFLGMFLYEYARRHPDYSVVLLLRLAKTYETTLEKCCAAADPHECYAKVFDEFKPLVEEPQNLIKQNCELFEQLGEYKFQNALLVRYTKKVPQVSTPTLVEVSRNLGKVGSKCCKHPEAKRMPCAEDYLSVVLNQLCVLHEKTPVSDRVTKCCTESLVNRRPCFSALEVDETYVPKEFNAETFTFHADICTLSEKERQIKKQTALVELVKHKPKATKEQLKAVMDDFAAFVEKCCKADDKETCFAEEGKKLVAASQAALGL

`Cc1ccc(CCCC(=O)NCCCC[C@H](NC(=O)c2ccc(-n3cc(C[C@H](NC(=O)CC[C@H](C(=O)O)N4CCN(CC(=O)O)CCN(CC(=O)O)CC4)C(=O)NCCOCCOCC(=O)N[C@@H](CCCCN)C(=O)N[C@H]4CSSC[C@@H](C(=O)N[C@H](C(=O)O)[C@@H](C)O)NC(=O)[C@@H](Cc5c[nH]c6ccccc56)NC(=O)[C@@H](Cc5ccccc5)NC(=O)[C@H]([C@@H](C)O)NC(=O)[C@H](Cc5ccc(O)cc5)NC4=O)nn3)cc2)C(N)=O)cc1` [[64Cu]Cu-NODAGA-cLAB4-scrTATE, metal not drawn] (X1-[Ala(1-(4-CO-Ph)triazol-4-yl)](X2)[AEEA]KCYT[dF][dW]CT-OH; disulfide 4-9) gave a Kd in series [1] of 42 µM. The half-life in series [2] was above 24 h; in series [3] (37 °C, up to 24 h, single experiment, read-out: t1/2 (plasma), mouse) it was above 24 h. Also, in series [3] (24 h, radio-HPLC), the “hydrolysis of the primary amide in mouse plasma” value is listed as “hydrolyzed”.

What is called Kd is the free concentration of one partner at which half of the binding sites on the other are occupied at equilibrium, for simple one-to-one binding. A lower Kd goes with tighter binding.
